Reference: PubChem BioAssay AID743348 (Broad Institute, 2014)
Activity calls are given as the source filed them.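 How the source made its calls: active means AC50 for ATP loss at or below twice the top valid dose tested, with the signal falling; inconclusive means flat fit showing moderate loss, or a poor-quality fit; inactive means the rest, including rises in signal.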

Experiments:
[1] = HepG2 cytotoxicity, dose response, cytotoxicity control, cell-based, ATP luminescence, dry powder, set 10 (AID 743348); settings: HepG2 viability, CellTiter-Glo ATP luminescence, 72 h; at 26 µM (top of the series)
[2] = test system: HepG2 viability, CellTiter-Glo ATP luminescence, 72 h; test: as above

Row | SMILES | activity change, negative = cytotoxicity [1] | AC50 [2]
1 | CC(=O)c1ccc(N2CCN(C(=O)c3cc(Cl)c4c(c3)OCO4)CC2)cc1 | 6.73% (inactive) | –
2 | N#Cc1ccc(N2CCN(C(=O)c3ccc4c(c3)OCO4)CC2)cc1 | -5.11% (inactive) | –
3 | O=C(c1ccc2c(c1)OCO2)N1CCN(c2ccc(C(F)(F)F)cc2)CC1 | 7.07% (inactive) | –
4 | CC(=O)c1ccc(N2CCN(C(=O)c3ccc4c(c3)OCO4)CC2)cc1 | -3.33% (inactive) | –
5 | CC(=O)c1ccc(N2CCN(C(=O)c3ccc4c(c3C)OCO4)CC2)cc1 | 0.898% (inactive) | –
6 | CC(=O)c1ccc(N2CCN(C(=O)c3ccc(Cl)c(Cl)c3)CC2)cc1 | 55.4% (inactive) | –
7 | O=C(c1ccc2c(c1)OCO2)N1CCN(c2ccc(OC(F)(F)F)cc2)CC1 | -0.808% (inactive) | –
8 | COc1ccc(C(=O)N2CCN(c3ccc(C(C)=O)cc3)CC2)cc1OC | 9.73% (inactive) | –
9 | CC(=O)c1ccc(N2CCN(C(=O)c3cc4c(cc3Cl)OCO4)CC2)cc1 | 28.5% (inactive) | –
10 | CC(=O)c1ccc(N2CCN(C(=O)c3cc4c(cc3C)OCO4)CC2)cc1 | 31.1% (inactive) | –
11 | CC(=O)c1ccc(N2CCN(S(=O)(=O)c3ccc4c(c3)OCO4)CC2)cc1 | – | > 52 µM (inactive)
12 | O=C(c1ccc2c(c1)OCO2)N1CCN(c2ccc(S(=O)(=O)C(F)F)cc2)CC1 | 27.7% (inactive) | –
13 | CC(=O)c1ccc(N2CCN(C(=O)c3ccc4c(c3)OC(F)(F)O4)CC2)cc1 | 14.2% (inactive) | –
14 | CC(=O)c1ccc(N2CCCN(C(=O)c3ccc4c(c3)OCO4)CC2)cc1 | 11.7% (inactive) | –
15 | CC(=O)c1ccc(N2CCN(C(=O)c3cc4c(cn3)OCO4)CC2)cc1 | -2.87% (inactive) | –
16 | O=C(c1ccc2c(c1)OCO2)N1CCN(c2ccc(S(=O)(=O)C(F)(F)F)cc2)CC1 | 24.8% (inactive) | –
17 | CC(=O)c1ccc(N2CC3CC2CN3C(=O)c2ccc3c(c2)OCO3)cc1 (stereo not given) | 36.6% (inactive) | –
18 | CC(=O)c1ccc(N2CCN(C(=O)c3ccc4snnc4c3)CC2)cc1 | 19.1% (inactive) | –
19 | CS(=O)(=O)c1ccc(N2CCN(C(=O)c3ccc4c(c3)OCO4)CC2)cc1 | -7.24% (inactive) | –
20 | CC(=O)c1ccc(N2CCN(C(=O)c3ccc4ocnc4c3)CC2)cc1 | 10.9% (inactive) | –
21 | CC(=O)c1ccc(N2CCN(C(=O)c3cccc4c3OCO4)CC2)cc1 | 14.1% (inactive) | –
22 | CC(=O)c1ccc(N2CCN(C(=O)c3ccc4c(c3)OC(C)(C)O4)CC2)cc1 | -6.05% (inactive) | –
23 | CC(=O)c1ccc(N2CCN(C(=O)Nc3ccc4c(c3)OCO4)CC2)cc1 | -12% (inactive) | –
24 | COc1cc2c(cc1C(=O)N1CCN(c3ccc(C(C)=O)cc3)CC1)OCO2 | 7.72% (inactive) | –
25 | COc1cc(C(=O)N2CCN(c3ccc(C(C)=O)cc3)CC2)cc2c1OCO2 | 12% (inactive) | –
